Molecular target: T1, Zcchc11 enzyme (Homo sapiens, UniProt Q5TAX3)
T1 construct: made in house; host or cells: HEK293 cells (Zcchc11); E. coli Rosetta II (LIN28A)
T1 sequence (Q5TAX3 212-1420): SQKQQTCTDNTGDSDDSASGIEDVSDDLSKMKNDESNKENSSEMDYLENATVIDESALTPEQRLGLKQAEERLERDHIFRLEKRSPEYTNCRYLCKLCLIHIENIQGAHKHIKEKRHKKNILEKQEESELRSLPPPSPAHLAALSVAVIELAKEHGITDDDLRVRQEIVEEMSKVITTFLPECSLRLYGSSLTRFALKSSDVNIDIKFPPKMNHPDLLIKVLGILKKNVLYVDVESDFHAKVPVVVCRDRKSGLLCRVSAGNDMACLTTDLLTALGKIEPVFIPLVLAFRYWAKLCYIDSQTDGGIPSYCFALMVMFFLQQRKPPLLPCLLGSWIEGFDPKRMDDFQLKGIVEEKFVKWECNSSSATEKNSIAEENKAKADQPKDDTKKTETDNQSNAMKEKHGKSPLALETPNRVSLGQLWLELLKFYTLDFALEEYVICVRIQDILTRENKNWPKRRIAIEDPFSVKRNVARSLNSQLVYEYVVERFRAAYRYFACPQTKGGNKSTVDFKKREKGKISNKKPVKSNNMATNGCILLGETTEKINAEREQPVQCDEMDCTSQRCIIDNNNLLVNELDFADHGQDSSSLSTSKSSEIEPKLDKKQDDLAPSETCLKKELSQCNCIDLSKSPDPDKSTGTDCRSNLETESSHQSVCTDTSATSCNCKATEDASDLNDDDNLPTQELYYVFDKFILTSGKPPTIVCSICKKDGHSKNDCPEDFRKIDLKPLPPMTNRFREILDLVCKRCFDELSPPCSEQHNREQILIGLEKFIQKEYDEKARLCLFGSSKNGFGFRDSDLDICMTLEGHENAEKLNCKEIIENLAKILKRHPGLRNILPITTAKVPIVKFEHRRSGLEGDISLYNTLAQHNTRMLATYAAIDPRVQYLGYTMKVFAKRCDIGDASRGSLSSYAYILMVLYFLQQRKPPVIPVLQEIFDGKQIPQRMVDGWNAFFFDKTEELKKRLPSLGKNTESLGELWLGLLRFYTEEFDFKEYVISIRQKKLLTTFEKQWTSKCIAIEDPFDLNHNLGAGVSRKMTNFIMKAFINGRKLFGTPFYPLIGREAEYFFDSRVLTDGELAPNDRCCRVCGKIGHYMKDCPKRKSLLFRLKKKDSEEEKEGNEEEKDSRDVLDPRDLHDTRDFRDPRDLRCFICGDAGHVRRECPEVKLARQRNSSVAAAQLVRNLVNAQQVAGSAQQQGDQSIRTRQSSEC
Assay: TUTase assay (Zcchc11 assay, Lin28a-dependent polyuridylation of pre-let-7)
Type: biochemical
Details: LIN28A 10 nM, Zcchc11 0.2 nM, 5′-fluorescein pre-let-7 miRNA 2 nM, UTP 5 uM, room temperature, 30 minutes pre-incubation; read-out: Potency Lin28a-dep Z11 IC50
In short: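 LIN28A (10 nM) in pH 7.3 HEPES/KCl/MgCl2/DTT buffer was mixed with serially diluted compound, then 0.2 nM truncated human Zcchc11 and 2 nM labeled pre-let-7 were added for 30 min at room temperature. UTP (5 uM) and quench probe (4 nM) then started the reaction. Linear early rates gave IC50 values.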

Row | SMILES | IC50 [nM]
1 | O=C(O)c1cn(-c2cnc(OCCO)cn2)c2cc(N3CCC[C@@H]3COc3ncccc3Cl)c(Cl)cc2c1=O [Example 45, 6-chloro-7-[(2R)-2-[[(3-chloropyridin-2-yl)oxy]methyl]pyrrolidin-1-yl]-1-[5-(2-hydroxyethoxy)pyrazin-2-yl]-4-oxoquinoline-3-carboxylic acid] | ≤ 1000
2 | O=C(O)c1cn(-c2cnc3c(n2)COC3)c2cc(N3CCC[C@@H]3COc3ncccc3Cl)c(Cl)cc2c1=O [Example 46, 6-chloro-7-[(2R)-2-[[(3-chloropyridin-2-yl)oxy]methyl]pyrrolidin-1-yl]-1-[5H,7H-furo[3,4-b]pyrazin-2-yl]-4-oxoquinoline-3-carboxylic acid] | ≤ 1000
3 | CN(C)C1CN(c2ccc(-n3cc(C(=O)O)c(=O)c4cc(Cl)c(N5C(COc6ncccc6Cl)CCS5(=O)=O)cc43)cn2)C1 (stereo not shown) [Example 47, 6-chloro-7-(3-(((3-chloropyridin-2-yl)oxy)methyl)-1,1-dioxidoisothiazolidin-2-yl)-1-(6-(3-(dimethylamino)azetidin-1-yl)pyridin-3-yl)-4-oxo-1,4-dihydroquinoline-3-carboxylic acid] | ≤ 1000
4 | CN(C)C1CN(c2ccc(-n3cc(C(=O)O)c(=O)c4cc(Cl)c(N5CCC6CC65COc5ncccc5Cl)cc43)cn2)C1 (stereo not shown) [Example 48, 6-chloro-7-(1-[[(3-chloropyridin-2-yl)oxy]methyl]-2-azabicyclo[3.1.0]hexan-2-yl)-1-[6-[3-(dimethylamino)azetidin-1-yl]pyridin-3-yl]-4-oxoquinoline-3-carboxylic acid] | ≤ 1000
5 | CN(C)C(=O)OC[C@H]1CCCN1c1cc2c(cc1Cl)c(=O)c(C(=O)O)cn2-c1ccc(N2CC(N(C)C)C2)nc1 [Example 49, 6-chloro-1-[6-[3-(dimethylamino)azetidin-1-yl]pyridin-3-yl]-7-[(2R)-2-[[(dimethylcarbamoyl)oxy]methyl]pyrrolidin-1-yl]-4-oxoquinoline-3-carboxylic acid] | ≤ 1000
6 | NCCOc1cccnc1OC[C@H]1CCCN1c1cc2c(cc1Cl)c(=O)c(C(=O)O)cn2-c1ccc(Br)nc1 [Example 50, (R)-7-(2-(((3-(2-aminoethoxy)pyridin-2-yl)oxy)methyl)pyrrolidin-1-yl)-1-(6-bromopyridin-3-yl)-6-chloro-4-oxo-1,4-dihydroquinoline-3-carboxylic acid] | ≤ 1000
7 | CN(C)C1CN(c2ccc(-n3cc(C(=O)O)c(=O)c4cc(C#N)c(N5CCC[C@@]5(C)COc5ncccc5F)cc43)cn2)C1 [Example 51, (S)-6-cyano-1-(6-(3-(dimethylamino)azetidin-1-yl)pyridin-3-yl)-7-(2-(((3-fluoropyridin-2-yl)oxy)methyl)-2-methylpyrrolidin-1-yl)-4-oxo-1,4-dihydroquinoline-3-carboxylic acid] | ≤ 1000
8 | Cc1cc2c(=O)c(C(=O)O)cn(-c3ccc(N4CC(N(C)C)C4)nc3)c2cc1N1C(=O)CC1COc1ccccn1 (stereo not shown) [Example 52, 1-(6-(3-(dimethylamino)azetidin-1-yl)pyridin-3-yl)-6-methyl-4-oxo-7-(2-oxo-4-((pyridin-2-yloxy)methyl)azetidin-1-yl)-1,4-dihydroquinoline-3-carboxylic acid] | 10000 to 50000
9 | CN(C)c1ccc(-n2cc(C(=O)O)c(=O)c3cc(Cl)c(N4CCC[C@@H]4COc4ncccc4OCCN)cc32)cn1 [Example 53, 7-[(2R)-2-([[3-(2-Aminoethoxy)pyridin-2-yl]oxy]methyl)pyrrolidin-1-yl]-6-chloro-1-[6-(dimethylamino)pyridin-3-yl]-4-oxoquinoline-3-carboxylic acid] | ≤ 1000
10 | CN(C)C1CN(c2ccc(-n3cc(C(=O)O)c(=O)c4cc(C#N)c(N5C(=O)CC[C@@H]5COc5ncccc5Cl)cc43)cn2)C1 [Example 54, (R)-7-(2-(((3-chloropyridin-2-yl)oxy)methyl)-5-oxopyrrolidin-1-yl)-6-cyano-1-(6-(3-(dimethylamino)azetidin-1-yl)pyridin-3-yl)-4-oxo-1,4-dihydroquinoline-3-carboxylic acid] | 10000 to 50000
11 | O=C(O)c1cn2c3cc(c(Cl)cc3c1=O)N1CCC[C@@H]1COc1nc(ccc1Cl)OCCCNc1ccc-2cn1 [Example 55, (R)-26,63-dichloro-24-oxo-21,24-dihydro-5,7-dioxa-11-aza-2(1,7)-quinolina-1(5,2),6(2,6)-dipyridina-3(1,2)-pyrrolidinacycloundecaphane-23-carboxylic acid] | 10000 to 50000
12 | CN(C)C1CN(c2ccc(-n3cc(C(=O)O)c(=O)c4cc(Cl)c(N5CCC[C@]5(C)COc5ncccc5Cl)nc43)cn2)C1 [Example 56, 6-chloro-7-[(2R)-2-[[(3-chloropyridin-2-yl)oxy]methyl]-2-methylpyrrolidin-1-yl]-1-[6-[3-(dimethylamino)azetidin-1-yl]pyridin-3-yl]-4-oxo-1,8-naphthyridine-3-carboxylic acid] | ≤ 1000
13 | CN(C)C1CN(c2ccc(-n3cc(C(=O)O)c(=O)c4cc(Cl)c(N5CC6(CCC6)CC5COc5ncccc5Cl)cc43)cn2)C1 (stereo not shown) [Example 57, 6-Chloro-7-(7-(((3-chloropyridin-2-yl)oxy)methyl)-6-azaspiro[3.4]octan-6-yl)-1-(6-(3-(dimethylamino)azetidin-1-yl)pyridin-3-yl)-4-oxo-1,4-dihydroquinoline-3-carboxylic acid] | ≤ 1000
14 | CN(C)C1CN(c2ccc(-n3cc(C(=O)O)c(=O)c4cc(Cl)c(N5CC(C)(C)C[C@@H]5COc5ncccc5Cl)cc43)cn2)C1 [Example 58, 6-chloro-7-[(2R)-2-[[(3-chloropyridin-2-yl)oxy]methyl]-4,4-dimethylpyrrolidin-1-yl]-1-[6-[3-(dimethylamino)azetidin-1-yl]pyridin-3-yl]-4-oxoquinoline-3-carboxylic acid] | ≤ 1000
15 | CN(C)C1CN(c2ccc(-n3cc(C(=O)O)c(=O)c4cc(Cl)c(N5CCC(C)(C)C5COc5ncccc5Cl)cc43)cn2)C1 (stereo not shown) [Example 59, 6-chloro-7-(2-{[(3-chloropyridin-2-yl)oxy]methyl}-3,3-dimethylpyrrolidin-1-yl)-1-{6-[3-(dimethylamino)azetidin-1-yl]pyridin-3-yl}-4-oxoquinoline-3-carboxylic acid] | ≤ 1000
16 | CN(C)C1CN(c2ccc(-n3cc(C(=O)O)c(=O)c4cc(Cl)c(N5CC(F)(F)C[C@@H]5COc5ncccc5Cl)nc43)cn2)C1 [Example 60, 6-chloro-7-[(2R)-2-[[(3-chloropyridin-2-yl)oxy]methyl]-4,4-difluoropyrrolidin-1-yl]-1-[6-[3-(dimethylamino)azetidin-1-yl]pyridin-3-yl]-4-oxo-1,8-naphthyridine-3-carboxylic acid] | ≤ 1000
17 | CN(C)C1CN(c2ccc(-n3cc(C(=O)O)c(=O)c4cc(F)c(N5C[C@H](c6cccnc6)C[C@@H]5COc5ncccc5Cl)cc43)cn2)C1 [Example 61, 7-[(2R)-2-[[(3-Chloropyridin-2-yl)oxy]methyl]-4-(pyridin-3-yl)pyrrolidin-1-yl]-1-[6-[3-(dimethylamino)azetidin-1-yl]pyridin-3-yl]-6-fluoro-4-oxoquinoline-3-carboxylic acid] | ≤ 1000
18 | CN(C)C1CN(c2ccc(-n3cc(C(=O)O)c(=O)c4cc(F)c(N5C[C@@H](c6cccnc6)C[C@@H]5COc5ncccc5Cl)cc43)cn2)C1 [Example 62, 7-[(2R,4R)-2-[[(3-chloropyridin-2-yl)oxy]methyl]-4-(pyridin-3-yl)pyrrolidin-1-yl]-1-[6-[3-(dimethylamino)azetidin-1-yl]pyridin-3-yl]-6-fluoro-4-oxoquinoline-3-carboxylic acid] | ≤ 1000
19 | CN(C)C1CN(c2ccc(-n3cc(C(=O)O)c(=O)c4cc(Cl)c(N5CC(C6CCC6)C[C@@H]5COc5ncccc5Cl)cc43)cn2)C1 (stereo partly drawn) [Example 63, 6-chloro-7-((2R)-2-(((3-chloropyridin-2-yl)oxy)methyl)-4-cyclobutylpyrrolidin-1-yl)-1-(6-(3-(dimethylamino)azetidin-1-yl)pyridin-3-yl)-4-oxo-1,4-dihydroquinoline-3-carboxylic acid] | ≤ 1000

From patent US12662491B2 (Redona Therapeutics, Inc., priority 2020, dated 2026)
